{"source": "patent US8440212B2", "about": "“Compositions for treating water systems” (Arch Chemicals, Inc., priority 2009, dated 2013)", "key": {"[1]": {"test_system": "wild mustard algae (Miami strain)", "procedure": "(§1) Efficacy of zinc ions (in the form of zinc sulfate) was evaluated using two strains of very difficult to control wild mustard algae, both isolated from a pool treated with BAQUACIL (Arch Chemicals, Norwalk, CT). All experiments were conducted in 125 ml Erlenmeyer flasks that contained 50 ml of Jaworski's medium. To increase the surface area in the flasks each flask also contained 50 6 mm glass beads. The tests flasks were illuminated using a combination incandescent and fluorescent plant grow lights with 16 hours of illumination and 8 hours of darkness. Temperature was maintained at 80° F+/−5° F. The flasks were grown without agitation or additional aeration. One ml of a pooled mid-log culture was used to used to inoculate the test flasks to an initial optical density of 95%T. This yields an initial concentration of approximately […] algae per ml. Efficacy was evaluated in the presence and absence of a sub-optimal concentration of a primary sanitizer (PHMB). Growth was measured optically at 450 nm using a 1 inch cell in a Spectronic 20. All experiments used five replicates. The results of the optical readings were arithmetically averaged. […] In FIGS. 1 and 2, PHMB concentrations were held at 4 PPM, and zinc ion concentration was varied from 0 to 3 PPM. Growth over time was measured and plotted."}, "[2]": {"test_system": "wild mustard algae (Schwab strain)", "procedure": "as §1"}, "[3]": {"test_system": "Chlorella pyrenoidosa, Pleurochloris pyrenoidosa and Phormidium sp.", "settings": "FIG. 4", "experimental": "This study was conducted in test pools without bathers. The water was initially balanced and proper water balance was maintained throughout the study. Each pool was inoculated weekly with mixed bacterial, fungal and algal cultures. The algae inoculations were prepared using the methodology below.\nAlgal cultures were maintained in 5 liter carboys at 22° C. under fluorescent light with a 12 hour on/off cycle. Air is continuously bubbled through the medium. Stock cultures of Chlorella pyrenoidosa and Pleurochloris pyrenoidosa are maintained in Kratz & Meyers medium and Phormidium sp., a filamentous blue-green alga, is maintained in BG-11.\n150 milliliters of a combined inoculum containing equal amounts of each strain is added weekly per 10,000 gallons of water. Typically the cultures contain approximately 2×10^7 cells per milliliter; therefore approximately 2×10^9 cells are added per pool each week. However, if time allows, determine the actual number of algae in each sample by heamocytometry, using a Neubauer heamocytometer. Each pool was chemically treated using the procedure below.\nA. Test Pool 7: Baquacil CDX +Didecyl dimethyl ammonium chloride (DDAC) • 1. […]\nObservations were taken on a business daily basis and the pool was scored using the following 0-4 scale. • 0=no trace of algae • 1=trace amounts • 2=small patches • 3=large patches • 4=sides and bottom more than 25% covered by algae"}, "[4]": {"settings": "2 or 3 ppm zinc ions, PHMB 4 PPM"}}, "note": "Like-named read-outs stand apart in the source and are kept apart here."}
{"smiles": "O=S(=O)([O-])[O-].[Zn+2]", "note": "[zinc sulfate]", "values": [{"measurement": "reduction of algal growth", "setting": "[1]; [4]", "value": "approximately 50%"}, {"measurement": "algaestatic activity", "setting": "[1]; FIG. 2, PHMB held at 4 PPM, zinc ion 0 to 3 PPM, growth measured optically at 450 nm", "value": "moderate algaestatic activity"}, {"measurement": "reduction of algal growth", "setting": "[2]; [4]", "value": "approximately 50%"}, {"measurement": "algaestatic activity", "setting": "[2]; FIG. 1, PHMB held at 4 PPM, zinc ion 0 to 3 PPM, growth measured optically at 450 nm", "value": "moderate algaestatic activity"}, {"measurement": "algaestatic performance (visual algae score 0-4)", "setting": "[3]; Test Pool 7: Baquacil CDX + DDAC, single 4.2 ppm dosage of zinc sulfate (1.5 PPM zinc) after 102 days", "value": "improved algaestatic performance"}, {"measurement": "algaestatic performance (visual algae score 0-4)", "setting": "[3]; Test Pool 8: Baquacil CDX control, 4.2 ppm dosages of zinc sulfate (1.5 PPM zinc) after 33, 40 and 61 days", "value": "improved algaestatic performance"}]}
